According to US5049372A, “Anticancer activities in a host by increasing blood and plasma adenosine 5'-triphosphate (ATP) levels” (priority 1988, dated 1991):
Where a name gives a salt, the structure may show the parent alone.

Columns and labels:
[1] = Host toxicity (deaths, body weight) in treated mice; type: in vivo, mouse; settings: i.p. injections of adenine nucleotides
Description: (§1) Tumor cells are removed from subconfluent cultures by a mild trypsin-EDTA treatment, the cell pellet is washed once with MEM without serum and the cells are suspended at the desired cell numbers in PBS (phosphate-bufferedsaline, 8 g NaCl, 0.2 g KCl, 1.15 g Na2 HPO4.7H2 O, and 0.2 g KH2 PO4 per liter). Cell suspensions are shown to be at least 90% viable by trypan blue exclusion. Mice are injected subcutaneously in the right hind footpad with tumor cells suspended in 50 μl of PBS. The regular protocol (unless otherwise stated) consists of daily i.p. injections of 1 ml of 0.85% NaCl solution or 1 ml of 50 mM of AMP, ADP, or ATP in 0.85% NaCl (from stock solutions adjusted to pH 6.2) starting one day after tumor inoculation and given for ten consecutive days.
(§2) Injections are administered with 30 gauge needles and the mice are lightly anesthetized with ether. The mice are weighed before the start of treatment and once a week during and after treatment. After the tumors become palpable, tumor sizes are determined every three days. The animals are sacrificed, tumors are excised and weighed before they reach 10% of the animals' weight.

[2] = tested on: CT26 tumors; assay: Growth inhibition of s.c. footpad CT26 tumors in CB6F1 mice by daily i.p. adenine nucleotides (Table 1); type: in vivo, mouse; settings: 0.5 × 10^6 cells, 1 ml of 50 mM i.p. daily
Description: (§3) The tumor cell lines employed were CT26, a mouse undifferentiated, aggressive colon carcinoma, and CAPAN-1, a well-differentiated human pancreatic adenocarcinoma. […] The cells are shown to be free of Mycoplasma contamination. Cells are cultured at 37° C. in a humidified atmosphere of 5% CO2 /95% air in MEM supplemented with antibiotics (100 units of penicillin per ml and 100 μg streptomycin per ml), L-glutamine (2 mM), non-essential amino acids (0.1 mM), sodium pyruvate (1 mM), and 10% fetal bovine serum.
(§4) In the tests, females and males CB6F1 mice (a standard F1 hybrid of BALB/C and C57BL/6) obtained from Jackson Laboratories, Bar Harbor, Maine and athymic outbred NCr nu/nu mice (males and females) from the Department of Radiation Medicine, Massachusetts General Hospital, Boston, Mass. 02114 are used. All the mice are kept for at least two weeks before inoculation of the tumors and the start of treatment and are 7-9 weeks old (CB6F1) or 6-7 weeks old (athymic nu/nu) at the start of the procedure. Animals weigh 20-25 g (females) or 23-28 g (males), are housed 5-12 per cage, and have ad libitum access to food and water.
as §1, §2
The growth inhibitory properties of adenine nucleotides against CT26 murine colon carcinoma, which are inoculated s.c. in the hind footpad of CB6F1 mice, are illustrated in Table 1 hereinbelow. […] No significant differences between males and females are observed either in the rate of tumor growth or in the tumor's response to adenine nucleotides treatment.

[3] = tested on: CAPAN-1 xenografts; assay: Arrest of growth of CAPAN-1 xenografts in athymic nu/nu mice (Table 2); type: in vivo, human; settings: experiment 5, 10 F, 0.5 × 10^5 cells, 9 weeks, 1 ml of 50 mM i.p.
Description: as §3, §4, §1, §2
The effects of AMP, ADP, and ATP on human tumor xenografts in nude mice were evaluated utilizing the pancreatic ductal adenocarcinoma CAPAN-1 (see Kyriazis AP, Kyriazis AA, Scarpelli DG, Fogh J, Rao SM, Lepera R., "Human Pancreatic Adenocarcinoma Line CAPAN-1 in Tissue Culture and the Nude Mouse", Am. J. Pathol., 1982, 106, 250-260).
Treatment schedules consist of single daily i.p. injections for 10 consecutive days, starting one day after tumor inoculation. Tumor burden is relatively low (0.5-1×10^5 cells implanted) and tumor growth is slow (tumors became palpable 4-6 weeks after inoculation).

[4] = ATP levels in mouse blood (total cellular) and plasma after i.p. injection (Table 3); type: in vivo; settings: CB6F1; for Blood ATP levels: total cellular
Description: The mice are anesthetized with ether during the procedure. The plasma is prepared by immediate centrifugation of the blood in a Beckman microfuge (30 sec at 8000 xg). Blood (20 μl) or plasma (100 μl) aliquots are added to 1 ml of cold 7% trichloroacetic acid. […] The determination of ATP levels in the extracts is performed by bioluminometry (luciferinluciferase) using a Turner Designs Bioluminescence Photometer.

[5] = tested on: tumor cells; settings: low doses; prior application Ser. No. 397,897; cited from earlier work
[6] = tested on: blood plasma phosphodiesterase; settings: anticoagulant; chelation of divalent cations; cited from earlier work
[7] = tested on: human subjects; settings: single rapid injections of 40 mg, intravenous or intra-arterial; cited from earlier work
[8] = tested on: tumor-bearing hosts; settings: literature; cited from earlier work
[9] = experiment 3, 12 M per group, day 13
[10] = experiment 4, 11 F per group, day 14
[11] = 1 hour after i.p. 1 ml of 50 mM
[12] = 5 hours after i.p. 1 ml of 50 mM

Nc1ncnc2c1ncn2[C@@H]1O[C@H](COP(=O)(O)OP(=O)(O)O)[C@@H](O)[C@H]1O [ADP, adenosine 5'-diphosphate]
Deaths [1]: Occasionally, an animal treated with ATP or ADP would die a few hours after injection | Tumor diameter [2, 9]: 1.3 ± 0.2 cm | Tumor weight [2, 9]: 0.73 ± 0.23 g | Tumor diameter [2, 10]: 1.1 ± 0.2 cm | Tumor weight [2, 10]: 0.86 ± 0.27 g | Arrested tumors/implanted tumors [3]: 6/10 | Plasma ATP levels [4, 11]: 2.66 ± 0.46 µM | Blood ATP levels [4, 11]: 1.28 ± 0.30 mM | Plasma ATP levels [4, 12]: 2.75 ± 0.87 µM | Blood ATP levels [4, 12]: 1.65 ± 0.41 mM | Effect on growth of tumor cells in vitro (in words) [5]: marked inhibition of DNA synthesis and arrest of significant populations of cells in the S phase of their cycle

O=C(O)CC(O)(CC(=O)O)C(=O)O [Citrate]
Inhibition of blood plasma phosphodiesterase activity [6]: inhibit the activity of a blood plasma phosphodiesterase

Nc1ncnc2c1ncn2[C@@H]1O[C@H](COP(=O)(O)OP(=O)(O)OP(=O)(O)O)[C@@H](O)[C@H]1O [sodium salt of ATP, reference compound]
Subjective and physiological changes in human subjects [7]: small subjective and physiological changes in human subjects

insulin: the anabolic hormone insulin
Effect against rapid weight losses in tumor-bearing hosts [8]: effective against rapid weight losses in tumor-bearing hosts | Effect on growth of the tumor itself [8]: do not inhibit the growth of the tumor itself
